Molecules are shown by their SMILES. “Also recorded” adds a separate entry of the source. Where two headings read alike, the source gives them in different places. Marks after values point to notes of the source that are not given here.

The values that follow come from patent publication US9174948B2, “Desferrithiocin polyether analogues” (University of Florida Research Foundation, Inc., priority 2007, dated 2015).

The subject of series [1] is kidney proximal and distal tubules. The note with it: rats, po, 237 μmol/kg/dose twice daily (474 μmol/kg/day) for 7 days; cited from earlier work.
The target in series [2] is Sudlow types I and II albumin binding sites (Rattus norvegicus, UniProt P02770). Description: Ligand-albumin binding in bile duct-cannulated rodents treated with sodium benzoate. As to conditions: rats; for Iron-Clearing Efficiency (%): chelator 300 μmol/kg po plus sodium benzoate 250 mg/kg/dose sc × 6 doses; for fold increase in ICE with sodium benzoate: chelator 300 μmol/kg po, with vs without sodium benzoate.
Sequence of Sudlow types I and II albumin binding sites (P02770 25-608): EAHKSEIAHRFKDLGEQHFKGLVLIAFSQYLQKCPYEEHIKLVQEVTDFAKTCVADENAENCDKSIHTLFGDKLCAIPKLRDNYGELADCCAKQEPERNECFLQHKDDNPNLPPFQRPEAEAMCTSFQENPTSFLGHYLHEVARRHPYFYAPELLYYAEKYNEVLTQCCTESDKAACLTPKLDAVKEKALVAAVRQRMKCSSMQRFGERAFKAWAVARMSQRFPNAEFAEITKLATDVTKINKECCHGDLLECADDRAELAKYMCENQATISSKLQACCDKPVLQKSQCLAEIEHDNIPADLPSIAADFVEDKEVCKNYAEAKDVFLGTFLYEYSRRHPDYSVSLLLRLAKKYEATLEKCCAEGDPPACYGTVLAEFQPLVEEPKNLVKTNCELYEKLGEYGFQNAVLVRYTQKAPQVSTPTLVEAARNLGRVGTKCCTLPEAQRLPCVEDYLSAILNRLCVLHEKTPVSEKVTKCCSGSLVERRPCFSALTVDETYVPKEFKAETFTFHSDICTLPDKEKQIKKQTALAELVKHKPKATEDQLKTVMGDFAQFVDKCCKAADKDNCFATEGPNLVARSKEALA
Text: We elected to focus on a drug that is under clinical trials with Genzyme, (S)-4′-(HO)-DADFT (1).

Series [3] has as its system Non-Iron-Overloaded Rodents. As to conditions: po, cited from earlier work; for Iron-Clearing Efficiency (%): rats, 300 μmol/kg, historical data.
For series [4] the following is noted: earlier preclinical studies; cited from earlier work.
Series [5] in a line: Chelator tissue distribution in rodents. In kind it is in vivo, rat (male Sprague-Dawley). As to conditions: rats, sc, 300 μmol/kg. The method, then:
Collection of Tissue Distribution Samples from Rodents: Male Sprague-Dawley rats (250-350 g) were given a single sc injection of the monosodium salts of 6 and 9 prepared as described above at a dose of 300 μmol/kg. At times 0.5, 1, 2, and 4 h after dosing (n=3 rats per time point) the animals were euthanized by exposure to CO2 gas. Blood was obtained via cardiac puncture into vacutainers containing sodium citrate. The blood was centrifuged, and the plasma was separated for analysis. The liver, heart, kidneys, and pancreas were then removed from the animals. […] J. Med. Chem. 2006, 49, 2772-2783]. In the current study, tissues from the (S)-3′-(HO)-DADFT-PE (9) and (S)-5′-(HO)-DADFT-PE (6) treated rats were prepared for HPLC analysis by homogenizing them in 0.5 N HClO4 at a ratio of 1:3 (w/v). Then, as a rinse, CH3OH at a ratio of 1:3 (w/v) was added and the mixture was stored at −20° C. for 30 min. This homogenate was centrifuged. The supernatant was diluted with mobile phase A (95% buffer [25 mM KH2PO4, pH 3.0]/5% CH3CN), vortexed, and filtered with a 0.2 μm membrane. Analytical separation was performed on a Discovery RP Amide C16 HPLC system with UV detection at 310 nm as described previously [Bergeron, R. J., Wiegand, J., Weimar, W. R., McManis, J. S., Smith, R. E. and Abboud, K. A. Iron Chelation Promoted by Desazadesferrithiocin Analogues: An Enantioselective Barrier. Chirality 2003, 15, 593-599; Bergeron, R. J., Wiegand, J., Ratliff-Thompson, K. and Weimar, W. R. The Origin of the Differences in (R)- and (S)-Desmethyldesferrithiocin: Iron-Clearing Properties. Ann. N.Y. Acad. Sci. 1998, 850, 202-216]. Mobile phase and chromatographic conditions were as follows: solvent A, 5% CH3CN/95% buffer; solvent B, 60% CH3CN/40% buffer. The concentrations were calculated from the peak area fitted to calibration curves by nonweighted least-squares linear regression with Rainin Dynamax HPLC Method Manager software (Rainin Instrument Co.).

The test system of series [6] is Iron-Overloaded Cebus apella Primates. The note with it: po, cited from earlier work; for Iron-Clearing Efficiency (%): Cebus apella, 150 μmol/kg, historical data.
For series [7], the system named is Non-Iron-Overloaded Rodents. As to the kind of experiment: Chelator-induced iron clearance in non-iron-overloaded, bile duct-cannulated rats. In kind it is in vivo, rat (male Sprague-Dawley). As to conditions: po, 300 μmol/kg, 1 vs 3, 4 vs 6, 7 vs 9. An excerpt: Chelator-Induced Iron Clearance in Non-Iron-Overloaded Rodents. […] J. Med. Chem. 2006, 49, 2772-2783]. Recall that iron-clearing efficiency (ICE) is defined as (net iron excretion)/(total iron-binding capacity of the chelator), expressed as a percent. The relative ICE values of compounds 1 and 2 were in keeping with their log Papp values: the more lipophilic, the larger log Papp, the more efficient the chelator. […] However, the ICE trend was in keeping with the biliary ferrokinetics (FIG. 3) and liver concentration of the chelators, for example, 3>1 (FIG. 4).
Cannulation of Bile Duct in Non-Iron-Overloaded Rats has been described previously. […]. […] The urine sample(s) was taken at 24 h intervals. Sample collection and handling are as previously described [Bergeron, R. J., Streiff, R. R., Creary, E. A., Daniels, R. D., Jr., King, W., Luchetta, G., Wiegand, J., Moerker, T. and Peter, H. H. A Comparative Study of the Iron-Clearing Properties of Desferrithiocin Analogues with Desferrioxamine B in a Cebus Monkey Model. Blood 1993, 81, 2166-2173; Bergeron, R. J., Streiff, R. R., Wiegand, J., Vinson, J. R. T., Luchetta, G., Evans, K. M., Peter, H. and Jenny, H.-B. A Comparative Evaluation of Iron Clearance Models. Ann. N.Y. Acad. Sci. 1990, 612, 378-393].
In the iron-clearing experiments, the rats were given a single 300 μmol/kg dose of drugs 1-9 orally (po).
J. Med. Chem. 1999, 42, 2432-2440].

For series [8] the following is noted: 2:1 complex with Fe(III); cited from earlier work.
Setting [9] is: listed as (S)-4′-(HO)-DADFT (1).
Where [10] appears, read: listed as (S)-4′-(HO)-DADFT-PE (3).

In the case of `C[C@]1(C(=O)O)CSC(c2ccc(O)cc2O)=N1` [Compound 1, (S)-2-(2,4-dihydroxyphenyl)-4,5-dihydro-4-methyl-4-thiazolecarboxylic acid], the “distal tubules under light microscopy” value in series [1] is reported as “moderate to severe vacuolization”. The “proximal tubules under light microscopy” value in series [1] is “regional, moderate to severe vacuolization in the proximal tubules, a loss of the brush border, and tubular extrusions toward the lumen”. For the same molecule, the “Iron-Clearing Efficiency (%)” value in series [2] is given as 12.0±2.6%; in series [2] (setting [9]), 12.0 ± 2.6^b %; in series [3], 1.1±0.8%; in series [3] (setting [9]), 1.1 ± 0.8%; in series [6], 16.8±7.2%. Also, the “fold increase in ICE with sodium benzoate” value in series [2] amounted to 10.9 fold. For the same molecule, the “toxicity / nephrotoxicity in words” value in series [4] was “no geno- or reproductive toxicity and only mild nephrotoxicity at high doses”. For the same molecule, the figures for the kidney concentration in series [5] (0.5 h), in series [5] (1 h) and in series [5] (4 h) were 361±56 nmol/g wet weight, 179±4 nmol/g wet weight and 27±7 nmol/g wet weight, respectively. Further, in series [5] (4 h), the pancreas concentration result is listed as “undetectable”.

Consider `COCCOCCOCCOc1ccc(C2=N[C@@](C)(C(=O)O)CS2)c(O)c1` [Compound 3, (S)-4,5-dihydro-2-[2-hydroxy-4-(3,6,9-trioxadecyloxy)phenyl]-4-methyl-4-thiazolecarboxylic acid], for which, in series [1], the “distal tubules under light microscopy” value is on record as “occasional vacuolization but were otherwise normal”. In series [1], the “proximal tubules under light microscopy” value is on record as “indistinguishable from those of the control animals”. Further, the “Iron-Clearing Efficiency (%)” value in series [2] is given as 8.8±2.4%; in series [2] (setting [10]) it was 8.8 ± 2.4^c %; in series [3], 5.5±1.9%; in series [3] (setting [10]), 5.5 ± 1.9%; in series [6], 25.4±7.4%. Also, the “fold increase in ICE with sodium benzoate” value in series [2] is reported as 1.6 fold. Further, in series [4], the “toxicity / nephrotoxicity in words” value is given as “profoundly reduced nephrotoxicity; also recorded: profoundly less nephrotoxic”. The concentration at 0.5 h in series [5] (male, Sprague-Dawley, rat, plasma, 0.5 h) is 194 ± 60 µM. For the same molecule, the “decrease of liver concentration from 0.5 h to 1 h” value in series [5] was 6%. Also, the kidney concentration in series [5] (0.5 h) turned out to be 368±74 nmol/g wet weight; in series [5] (1 h) it was 252±10 nmol/g wet weight; in series [5] (2 h) it was 41±3 nmol/g wet weight; in series [5] (4 h), 34±13 nmol/g wet weight. The same molecule displayed a liver concentration in series [5] (0.5 h) of 339±35 nmol/g wet weight. Moreover, the “drop in plasma concentration relative to 0.5 h” value came out at 28% in series [5] (1 h), 92% in series [5] (2 h) and 97% in series [5] (4 h). For the same molecule, the pancreas concentration entry in series [5] (2 h) is given as “≈ 30 nmol/g wet weight”. Further, the “ICE of the polyether relative to that of the parent ligand” value in series [7] is on record as 500%.

In the case of `C[C@]1(C(=O)O)CSC(c2ncccc2O)=N1` [DFT, (S)-4,5-dihydro-2-(3-hydroxy-2-pyridinyl)-4-methyl-4-thiazolecarboxylic acid, reference compound], the ICE in series [3] (bile duct-cannulated rodent model) was 5.5%; in series [6] (iron-overloaded Cebus apella primate), 16%. Also, the “toxicity / nephrotoxicity in words” value in series [4] is on record as “severely nephrotoxic”. Besides, the cumulative formation constant in series [8] is 4e+29 M⁻¹.
